According to patent US4591605A, “Method and ingestible formulation for inhibiting the secretion of stomach acid” (Research Foundation of State University of New York, priority 1982, dated 1986):

What was measured:
[1] = test system: histamine stimulated bullfrog gastric mucosa; experiment: H+ secretion by histamine-stimulated bullfrog gastric mucosa (chambered mucosa, titration); design: species or system bullfrogs (Rana catesbeiana); settings: for activity at 500 µM: Aquarana catesbeiana, 0.5 mM drug in the secretory solution, histamine stimulated steady-state H+ secretory rate, mean ±SEM, read-out: Rate of H^+ transport (% of control); for reversibility of the inhibition of H^+ transport by elevation of secretory K^+: K+ substituted for Na+ of the secretory solution; for inhibitory effect relative to the other polyamine: spermine versus spermidine
Procedure: This experiment was carried out with gastric mucosa from bullfrogs (Rana catesbeiana). […] The area of the mounted mucosae was 1.5 cm^2. The bathing solutions were bubbled continuously with […] -5% CO2.
The normal nutrient soliution had the following composition (in mM): NaCl 87, KCl 4, CaCl2 2, MgCl2 1, KH2 PO4 1, NaHCO3 18, and glucose 11.
All experiments were conducted under open-circuit conditions at room temperature. The mucosal solutions were collected at 15-minute intervals and placed in thoroughly washed plastic vials. The K^+ content of the secretory medium was determined by atomic absorption spectrophotometer (model 360 Perkin-Elmer). The H^+ secretion was quantitated by titration using 1 mM NaOH to pH 6.5 while gassing with 100% N2.
The H^+ secretory rates are the steady-stage values before (None) and after addition of the drugs attained by the histamine stimulated mucosa. Values are mean ±SEM.

[2] = test system: gastric (H^+ +K^+)-ATPase; settings: vesicles preequilibrated in 150 mM KCl with 0.5 mM compound for 48 hours
Procedure: The gastric microsomal membranes were harvested. All procedures were carried out at 0°-4° C. Briefly, the fundic mucosa from the pig was desquamated and scraped to collect the oxyntic cell-enriched fractions. The mucosal scraping was homogenized gently in a medium consisting of 250 mM sucrose, 0.2 mM EDTA, and 0.2 mM Pipes buffer (pH 6.8) using a loose pestle homogenizer. The homogenate was centrifuged at 8000 g for 5 min. The process was repeated three times. All the supernatants were pooled together and layered over 40 ml of 37% sucrose in 84-ml capacity screw cap tubes and centrifuged at 100,000 g for 5 hours. The microsomal membrane bands appeared at the interface of soluble supernatant and 37% sucrose. The microsomal vesicle bands were collected, diluted with homogenizing medium, and centrifuged at 100,000 g for 90 min. The pellet was suspended in the homogenizing medium with a protein concentration of 0.5 mg/ml. The collected cellular vesicules were inverted, i.e., the interior of the vesicules originally faced the lumen side of the stomach. Vesicular accumulation of H^+ was measured at room temperature. The method uses the change in fluorescence intensity (quenching) of 9-amino-acridine or acridine orange which is proportional to the amount of dye taken up by the microsomes. The amount of dye taken up is a sensitive measure of intravesicular H^+ concentration. […]

H^+ uptake by the vesicles [2] | SMILES | activity at 500 µM [1] [%] | inhibition of H^+ transport, added into the secretory solution ([1]; 0.25 mM in secretory solution (lumen side), inhibition increased with concentration) | rate of H^+ transport in K+-depleted mucosa ([1]; 1 mM together with 10 mM K+ in the secretory solution, within 30 min) | reversibility of inhibition by elevation of secretory K^+ in K+-depleted mucosa ([1]; 1 mM with 10 mM K+ in secretory solution, then K+ elevated) | effect on H^+ transport, added to nutrient solution ([1]; 0.5 and 1.0 mM, from the nutrient side) | reversibility of the inhibition of H^+ transport by elevation of secretory K^+ [1] | inhibitory effect relative to the other polyamine [1] | inhibition of gastric H^+ transport, added into the nutrient solution ([1]; nutrient solution, concentration not given) | inhibition of gastric H^+ transport, added into the secretory solution ([1]; secretory solution, concentration not given)
 | NCCCCN [Putrescine, putrescine, reference compound] | 95 ± 10 |  |  |  |  |  |  |  | 
totally obliterated | NCCCNCCCCNCCCN [Spermine, spermine] | 28 ± 6 | remarkable inhibition of H^+ transport | near zero | could be reversed | did not have any appreciable effect | completely reversible | more potent than spermidine |  | 
 | NCCCCNCCCN [Spermidine, spermidine] | 55 ± 2 |  |  |  |  | could also be reversed | much lower than spermine | not into the nutrient solution | inhibits gastric H^+ transport
